Tests used:
[1] = tested on: 2nd instar larvae of Spodoptera frugiperda; assay: Laboratory test, 2nd instar larvae of Spodoptera frugiperda on treated soybean leaves; format: in vivo; details: within 96 h
[2] = tested on: 2nd instar larvae of Spodoptera frugiperda; assay: Laboratory test, 2nd instar larvae of Spodoptera frugiperda on maize leaves; format: in vivo; details: within 72 h

Row | SMILES | Concentration needed to achieve 50% mortality, relative to the concentration of Compound 2 [1] | Concentration in leaf tissue needed to achieve 100% mortality [2] | Concentration in leaf tissue resulting in 50% mortality [2]
1 | CNC(=O)c1cc(C#N)cc(C)c1NC(=O)c1cc(Br)nn1-c1ncccc1Cl [Compound 1, 3-bromo-1-(3-chloro-2-pyridinyl)-N-[4-cyano-2-methyl-6-[(methylamino)carbonyl]phenyl]-1H-pyrazole-5-carboxamide] | 4-5 times greater | – | –
2 | CNC(=O)c1cc(Cl)cc(C)c1NC(=O)c1cc(Br)nn1-c1ncccc1Cl [Compound 2, 3-bromo-N-[4-chloro-2-methyl-6-[(methylamino)carbonyl]phenyl]-1-(3-chloro-2-pyridinyl)-1H-pyrazole-5-carboxamide] | – | 0.037 μg per g of tissue | 0.033 μg per g of leaf tissue

Source: US8530382B2, “Anthranilic diamide compositions for propagule coating” (E I du Pont de Nemours and Company, priority 2009, dated 2013)
